Patent US12371428B2 (Exelixis, Inc., priority 2019, dated 2025)

Columns and labels:
Assay type in all cases: cell-based
[1] = target: AXL (phospho-AXL, Gas6-stimulated A-172 glioblastoma cells) (Homo sapiens (Human), UniProt P30530); assay: AXL autophosphorylation ELISA in A-172 cells (Example E); details: cellular activity; AXL autophosphorylation ELISA in A-172 cells; read-out: Axl IC50
In short: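 Phospho-AXL was measured by ELISA in lysates of Gas6-stimulated A-172 cells, starved 24 h in serum-free medium and exposed 1 h to an 8-point compound dilution at 0.3% DMSO.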

[2] = target: Met (phospho-Met, HGF-stimulated PC-3 prostate cancer cells) (Homo sapiens (Human), UniProt P08581); assay: Met autophosphorylation ELISA in PC-3 cells (Example F); details: cellular activity; Met autophosphorylation ELISA in PC-3 cells; read-out: c-Met IC50
In short: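 Sandwich ELISA for phospho-Met (panTyr) in PC-3 lysates. Cells starved 3 h serum-free, compound 1 h (8-pt curve, 0.3% DMSO), HGF 100 ng/mL 10 min. 100% = HGF + DMSO; 0% = HGF + reference inhibitor. IC50 by 4-parameter fit.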

[3] = target: KDR (phospho-KDR, VEGF165-stimulated HUVEC cells) (Homo sapiens (Human), UniProt P35968); assay: KDR autophosphorylation ELISA in HUVEC cells (Example G); details: cellular activity; KDR autophosphorylation ELISA in HUVEC cells
In short: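 Inhibition of VEGF165-driven KDR autophosphorylation is measured in primary human umbilical vein endothelial cells after 24 h serum deprivation. Compound preincubation lasts 1 h before a 5-minute challenge with 100 ng/mL ligand, and phosphorylated receptor is then measured by ELISA in the lysates.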

[4] = target: Mer (phospho-Mer, MERTK-transfected 293A cells) (Homo sapiens (Human), UniProt Q12866); assay: Mer autophosphorylation ELISA in transient transfected 293A cells (Example H); details: cellular activity; Mer autophosphorylation ELISA in transient transfected 293A cells
In short: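 MERTK-transfected 293A; 8-pt dose, 1 h, serum-free, 0.3% DMSO. Cold lysis with orthovanadate and protease/phosphatase inhibitors. Phospho-Mer by DuoSet IC ELISA vs phospho-Mer standard. IC50: 4-PL fit; DMSO = 100%, reference inhibitor = 0%.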

Chain of KDR (phospho-KDR, VEGF165-stimulated HUVEC cells) (P35968 20-1356): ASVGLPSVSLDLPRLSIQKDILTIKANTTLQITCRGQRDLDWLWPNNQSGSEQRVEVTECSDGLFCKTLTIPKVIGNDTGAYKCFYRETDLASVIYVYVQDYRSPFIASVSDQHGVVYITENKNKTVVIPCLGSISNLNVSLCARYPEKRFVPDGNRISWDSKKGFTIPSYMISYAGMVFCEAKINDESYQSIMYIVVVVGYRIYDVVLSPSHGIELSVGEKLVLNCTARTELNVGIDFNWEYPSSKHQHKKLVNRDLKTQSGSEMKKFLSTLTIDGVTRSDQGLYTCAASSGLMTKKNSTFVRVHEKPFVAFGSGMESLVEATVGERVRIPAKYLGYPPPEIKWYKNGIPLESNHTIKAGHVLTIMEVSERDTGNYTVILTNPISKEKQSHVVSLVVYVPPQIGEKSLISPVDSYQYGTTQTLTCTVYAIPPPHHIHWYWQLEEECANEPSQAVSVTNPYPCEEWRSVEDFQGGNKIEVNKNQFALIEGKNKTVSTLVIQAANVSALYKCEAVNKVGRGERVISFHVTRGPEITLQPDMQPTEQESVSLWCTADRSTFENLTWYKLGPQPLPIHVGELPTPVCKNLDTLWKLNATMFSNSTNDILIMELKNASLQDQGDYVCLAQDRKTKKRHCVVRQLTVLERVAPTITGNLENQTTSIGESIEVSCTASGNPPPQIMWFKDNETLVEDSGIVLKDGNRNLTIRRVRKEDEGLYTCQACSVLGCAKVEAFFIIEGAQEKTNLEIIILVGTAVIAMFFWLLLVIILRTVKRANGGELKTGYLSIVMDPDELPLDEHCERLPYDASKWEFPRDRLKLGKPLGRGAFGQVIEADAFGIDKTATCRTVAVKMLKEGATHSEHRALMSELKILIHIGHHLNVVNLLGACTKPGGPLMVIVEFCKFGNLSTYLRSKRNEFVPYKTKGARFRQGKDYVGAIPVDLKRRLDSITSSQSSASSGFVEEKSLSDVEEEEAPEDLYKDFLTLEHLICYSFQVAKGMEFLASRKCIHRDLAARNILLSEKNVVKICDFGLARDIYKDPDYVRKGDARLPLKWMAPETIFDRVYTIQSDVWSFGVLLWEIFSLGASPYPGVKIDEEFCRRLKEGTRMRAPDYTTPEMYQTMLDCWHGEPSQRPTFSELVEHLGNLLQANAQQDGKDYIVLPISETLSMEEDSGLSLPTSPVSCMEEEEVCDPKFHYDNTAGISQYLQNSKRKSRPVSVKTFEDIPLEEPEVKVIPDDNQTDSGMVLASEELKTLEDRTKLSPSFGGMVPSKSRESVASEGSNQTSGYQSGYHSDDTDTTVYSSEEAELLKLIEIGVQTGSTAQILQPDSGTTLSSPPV
Chain of Mer (phospho-Mer, MERTK-transfected 293A cells) (Q12866 21-999): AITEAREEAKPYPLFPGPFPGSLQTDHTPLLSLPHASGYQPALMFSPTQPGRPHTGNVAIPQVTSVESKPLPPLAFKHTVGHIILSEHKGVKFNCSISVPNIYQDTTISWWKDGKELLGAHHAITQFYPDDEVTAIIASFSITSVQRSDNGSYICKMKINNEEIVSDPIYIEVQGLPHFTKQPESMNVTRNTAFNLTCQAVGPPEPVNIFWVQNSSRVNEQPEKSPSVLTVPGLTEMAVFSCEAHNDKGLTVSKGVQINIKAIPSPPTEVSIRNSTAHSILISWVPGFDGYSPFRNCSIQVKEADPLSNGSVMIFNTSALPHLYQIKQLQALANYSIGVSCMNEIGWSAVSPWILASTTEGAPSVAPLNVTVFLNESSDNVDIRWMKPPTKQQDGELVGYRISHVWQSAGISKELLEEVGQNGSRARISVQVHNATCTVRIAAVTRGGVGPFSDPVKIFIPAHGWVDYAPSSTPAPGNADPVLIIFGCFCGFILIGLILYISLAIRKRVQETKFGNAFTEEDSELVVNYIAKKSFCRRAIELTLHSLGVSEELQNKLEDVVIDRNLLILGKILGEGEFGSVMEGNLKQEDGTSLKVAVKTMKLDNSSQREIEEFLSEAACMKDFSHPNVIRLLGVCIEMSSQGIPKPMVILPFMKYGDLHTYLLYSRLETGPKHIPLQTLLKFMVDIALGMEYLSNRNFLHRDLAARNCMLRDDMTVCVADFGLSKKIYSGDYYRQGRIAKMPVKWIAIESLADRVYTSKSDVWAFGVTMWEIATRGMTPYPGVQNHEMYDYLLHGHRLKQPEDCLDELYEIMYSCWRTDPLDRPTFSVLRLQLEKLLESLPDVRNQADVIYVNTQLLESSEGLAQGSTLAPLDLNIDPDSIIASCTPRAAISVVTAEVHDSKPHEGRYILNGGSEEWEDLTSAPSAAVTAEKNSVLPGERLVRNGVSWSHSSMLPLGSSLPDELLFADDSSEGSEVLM
Chain of Met (phospho-Met, HGF-stimulated PC-3 prostate cancer cells) (P08581 25-1390): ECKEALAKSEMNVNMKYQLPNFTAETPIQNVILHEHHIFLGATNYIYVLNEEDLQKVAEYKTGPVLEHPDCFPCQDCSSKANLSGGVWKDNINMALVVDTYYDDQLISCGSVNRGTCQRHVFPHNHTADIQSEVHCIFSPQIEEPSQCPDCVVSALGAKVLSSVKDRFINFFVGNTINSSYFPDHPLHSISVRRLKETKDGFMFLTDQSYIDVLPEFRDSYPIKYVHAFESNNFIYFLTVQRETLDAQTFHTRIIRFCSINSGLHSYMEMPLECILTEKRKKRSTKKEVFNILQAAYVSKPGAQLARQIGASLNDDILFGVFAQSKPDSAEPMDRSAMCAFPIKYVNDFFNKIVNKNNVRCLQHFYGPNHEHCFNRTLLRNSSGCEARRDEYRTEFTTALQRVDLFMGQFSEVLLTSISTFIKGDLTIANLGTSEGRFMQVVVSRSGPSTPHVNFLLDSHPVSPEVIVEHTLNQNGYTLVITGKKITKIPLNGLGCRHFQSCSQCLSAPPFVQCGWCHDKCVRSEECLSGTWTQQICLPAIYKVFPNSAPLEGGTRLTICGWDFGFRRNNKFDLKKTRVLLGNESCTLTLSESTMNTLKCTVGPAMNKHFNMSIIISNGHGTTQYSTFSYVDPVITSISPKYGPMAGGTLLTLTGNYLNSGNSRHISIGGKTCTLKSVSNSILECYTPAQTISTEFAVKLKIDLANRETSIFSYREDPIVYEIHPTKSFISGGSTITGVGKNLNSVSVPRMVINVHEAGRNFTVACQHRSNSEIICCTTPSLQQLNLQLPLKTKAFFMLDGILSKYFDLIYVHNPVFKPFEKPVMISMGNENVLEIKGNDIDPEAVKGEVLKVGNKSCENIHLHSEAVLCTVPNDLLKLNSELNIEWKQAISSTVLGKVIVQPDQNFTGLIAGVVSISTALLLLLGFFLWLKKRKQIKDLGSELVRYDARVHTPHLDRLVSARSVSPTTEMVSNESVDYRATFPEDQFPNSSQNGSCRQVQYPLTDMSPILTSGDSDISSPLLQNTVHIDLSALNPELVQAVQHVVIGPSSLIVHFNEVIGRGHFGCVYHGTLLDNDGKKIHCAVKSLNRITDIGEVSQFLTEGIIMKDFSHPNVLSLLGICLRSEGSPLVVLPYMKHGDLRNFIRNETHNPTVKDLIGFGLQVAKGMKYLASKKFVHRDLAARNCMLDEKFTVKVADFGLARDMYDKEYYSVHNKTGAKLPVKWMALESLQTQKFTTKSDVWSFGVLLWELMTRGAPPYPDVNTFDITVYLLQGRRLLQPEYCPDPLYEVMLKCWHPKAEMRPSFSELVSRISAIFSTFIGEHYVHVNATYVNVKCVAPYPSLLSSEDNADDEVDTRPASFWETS
Chain of AXL (phospho-AXL, Gas6-stimulated A-172 glioblastoma cells) (P30530 26-894): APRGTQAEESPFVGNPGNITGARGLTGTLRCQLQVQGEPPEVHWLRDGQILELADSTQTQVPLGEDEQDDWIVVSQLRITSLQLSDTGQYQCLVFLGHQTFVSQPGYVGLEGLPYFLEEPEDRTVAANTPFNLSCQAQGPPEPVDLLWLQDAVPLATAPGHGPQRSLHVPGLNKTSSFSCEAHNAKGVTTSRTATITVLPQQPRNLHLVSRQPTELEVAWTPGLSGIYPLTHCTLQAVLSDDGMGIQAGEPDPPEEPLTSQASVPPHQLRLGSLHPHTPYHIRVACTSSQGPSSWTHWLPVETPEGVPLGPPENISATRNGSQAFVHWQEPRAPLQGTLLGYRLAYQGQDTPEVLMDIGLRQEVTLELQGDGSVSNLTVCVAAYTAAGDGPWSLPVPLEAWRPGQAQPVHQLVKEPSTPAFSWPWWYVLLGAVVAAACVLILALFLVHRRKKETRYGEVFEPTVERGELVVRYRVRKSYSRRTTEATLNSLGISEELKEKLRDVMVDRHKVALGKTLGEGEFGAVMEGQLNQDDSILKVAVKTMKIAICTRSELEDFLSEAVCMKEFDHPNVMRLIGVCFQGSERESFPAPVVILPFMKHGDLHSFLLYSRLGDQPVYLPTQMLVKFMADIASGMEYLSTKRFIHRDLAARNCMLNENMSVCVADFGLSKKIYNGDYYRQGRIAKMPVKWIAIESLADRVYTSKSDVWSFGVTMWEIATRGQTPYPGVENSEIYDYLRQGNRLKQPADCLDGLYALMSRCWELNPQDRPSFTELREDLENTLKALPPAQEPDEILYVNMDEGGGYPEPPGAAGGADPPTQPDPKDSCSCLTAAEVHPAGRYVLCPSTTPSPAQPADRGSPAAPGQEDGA

Row | Structure (SMILES) | IC50 [1] [nM] | IC50 [2] [nM] | IC50 [3] [nM] | IC50 [4] [nM]
1 | COc1cnc2c(Oc3ccc(NC(=O)c4c5n(c(C)c(-c6ccc(F)cc6C)c4=O)CCOC5)cc3F)ccnc2c1 [Compound 784, N-[3-fluoro-4-[(7-methoxy-1,5-naphthyridin-4-yl)oxy]phenyl]-7-(4-fluoro-2-methylphenyl)-6-methyl-8-oxo-3,4-dihydro-1H-pyrido[2,1-c][1,4]oxazine-9-carboxamide] | < 100 | < 100 | > 300 | < 100
2 | COc1cc2nccc(Oc3ccc(NC(=O)c4cn(C)c(C)c(-c5ccc(F)cc5F)c4=O)cc3)c2nc1OC [Compound 396, 5-(2,4-difluorophenyl)-N-[4-[(6,7-dimethoxy-1,5-naphthyridin-4-yl)oxy]phenyl]-1,6-dimethyl-4-oxopyridine-3-carboxamide] | < 100 | < 100 | < 100 | < 100
3 | COc1cc(NC(=O)c2cn(C)c(C)c(-c3ccc(F)cc3)c2=O)c(F)cc1Oc1ccnc2cc(OC)c(OC)nc12 [Compound 745, N-[4-[(6,7-dimethoxy-1,5-naphthyridin-4-yl)oxy]-2-fluoro-5-methoxyphenyl]-5-(4-fluorophenyl)-1,6-dimethyl-4-oxopyridine-3-carboxamide] | < 100 | < 100 | > 300 | < 100
4 | COc1ccc(-c2c(C)nc(C)c(C(=O)Nc3ccc(Oc4ccnc5cc(OC)cnc45)c(F)c3)c2O)c(OC)c1 [Compound 695, 5-(2,4-dimethoxyphenyl)-N-[3-fluoro-4-[(7-methoxy-1,5-naphthyridin-4-yl)oxy]phenyl]-4-hydroxy-2,6-dimethylpyridine-3-carboxamide] | > 300 | < 100 | < 100 | < 100
5 | COc1cc2nccc(Oc3ccc(NC(=O)c4nc(C)cn(-c5ccc(F)cc5)c4=O)cc3F)c2nc1OC [Compound 684, N-[4-[(6,7-dimethoxy-1,5-naphthyridin-4-yl)oxy]-3-fluorophenyl]-4-(4-fluorophenyl)-6-methyl-3-oxopyrazine-2-carboxamide] | < 100 | < 100 | > 300 | < 100
6 | COc1cc2nccc(Oc3ccc(NC(=O)c4cn5c(c(-c6ccc(F)cc6)c4=O)COCC5)cc3F)c2nc1OC [Compound 564, N-[4-[(6,7-Dimethoxy-1,5-naphthyridin-4-yl)oxy]-3-fluorophenyl]-9-(4-fluorophenyl)-8-oxo-3,4-dihydro-1H-pyrido[2,1-c][1,4]oxazine-7-carboxamide] | < 100 | < 100 | 100 to 300 | < 100
7 | COc1cc2c(Oc3ccc(NC(=O)c4ncc(C)n(-c5ccc(F)cc5)c4=O)cc3F)ccnc2cn1 [Compound 500, N-[3-fluoro-4-[(6-methoxy-1,7-naphthyridin-4-yl)oxy]phenyl]-4-(4-fluorophenyl)-5-methyl-3-oxopyrazine-2-carboxamide] | < 100 | < 100 | 100 to 300 | < 100
8 | COc1cc2nccc(Oc3ccc(NC(=O)c4c(C)ccn(-c5ccc(F)cc5C)c4=O)cc3)c2nc1OC [Compound 332, N-[4-[(6,7-dimethoxy-1,5-naphthyridin-4-yl)oxy]phenyl]-1-(4-fluoro-2-methylphenyl)-4-methyl-2-oxopyridine-3-carboxamide] | < 100 | < 100 | < 100 | < 100
9 | COc1cc2nccc(Oc3ccc(NC(=O)c4cc(C(C)=O)cn(-c5ccc(F)cc5)c4=O)cc3)c2nc1OC [Compound 359, 5-acetyl-N-[4-[(6,7-dimethoxy-1,5-naphthyridin-4-yl)oxy]phenyl]-1-(4-fluorophenyl)-2-oxopyridine-3-carboxamide] | < 100 | < 100 | > 300 | < 100
10 | COc1cc2nccc(Oc3ccc(NC(=O)c4cccn(-c5ccc(F)cc5)c4=O)cc3)c2nc1OC [Compound 361, N-[4-[(6,7-dimethoxy-1,5-naphthyridin-4-yl)oxy]phenyl]-1-(4-fluorophenyl)-2-oxopyridine-3-carboxamide] | < 100 | < 100 | < 100 | < 100
11 | COCCOc1cc2nccc(Oc3ccc(NC(=O)c4ccc(C)n(-c5ccc(F)cc5)c4=O)cc3F)c2nc1OC [Compound 484, N-[3-fluoro-4-[[6-methoxy-7-(2-methoxyethoxy)-1,5-naphthyridin-4-yl]oxy]phenyl]-1-(4-fluorophenyl)-6-methyl-2-oxopyridine-3-carboxamide] | < 100 | < 100 | < 100 | < 100
12 | COc1cc2nccc(Oc3ccc(NC(=O)c4nn(C(C)C)c(C)c(-c5ccc(F)cc5)c4=O)cc3F)c2cc1OC [Compound 575, N-[4-(6,7-Dimethoxyquinolin-4-yl)oxy-3-fluorophenyl]-5-(4-fluorophenyl)-6-methyl-4-oxo-1-propan-2-ylpyridazine-3-carboxamide] | < 100 | < 100 | < 100 | < 100
13 | COc1cc2nccc(Oc3ccc(NC(=O)c4nnc(C)c(-c5ccc(F)cc5)c4OC)cc3F)c2nc1OC [Compound 531, N-[4-[(6,7-dimethoxy-1,5-naphthyridin-4-yl)oxy]-3-fluorophenyl]-5-(4-fluorophenyl)-4-methoxy-6-methylpyridazine-3-carboxamide] | < 100 | < 100 | < 100 | < 100
14 | COCCOc1cc2nccc(Oc3ccc(NC(=O)c4c(C)nc(C)c(-c5ccc(F)cc5C)c4O)cc3F)c2nc1OC [Compound 487, N-[3-fluoro-4-[[6-methoxy-7-(2-methoxyethoxy)-1,5-naphthyridin-4-yl]oxy]phenyl]-5-(4-fluoro-2-methylphenyl)-4-hydroxy-2,6-dimethylpyridine-3-carboxamide] | < 100 | < 100 | < 100 | < 100
15 | COc1cnc2c(Oc3ccc(NC(=O)c4cnc(C)c(-c5ccc(OC)c(F)c5)c4O)cc3F)ccnc2c1 [Compound 698, N-[3-fluoro-4-[(7-methoxy-1,5-naphthyridin-4-yl)oxy]phenyl]-5-(3-fluoro-4-methoxyphenyl)-4-hydroxy-6-methylpyridine-3-carboxamide] | > 300 | > 300 | < 100 | < 100
16 | COc1cc2nccc(Oc3ccc(NC(=O)c4c(C)c(C(C)=O)cn(-c5ccc(F)cc5)c4=O)cc3F)c2nc1OC [Compound 654, 5-acetyl-N-[4-[(6,7-dimethoxy-1,5-naphthyridin-4-yl)oxy]-3-fluorophenyl]-1-(4-fluorophenyl)-4-methyl-2-oxopyridine-3-carboxamide] | < 100 | < 100 | < 100 | < 100
17 | COc1cc2nccc(Oc3ccc(NC(=O)c4c(C)c(F)c(C)n(-c5ccc(F)cc5)c4=O)cc3F)c2nc1OC [Compound 324, N-[4-[(6,7-Dimethoxy-1,5-naphthyridin-4-yl)oxy]-3-fluorophenyl]-5-fluoro-1-(4-fluorophenyl)-4,6-dimethyl-2-oxopyridine-3-carboxamide] | < 100 | < 100 | < 100 | < 100
